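Growth conditions: 96-well plates. Treatment: test compound, 48 hours, 5 concentrations. Analysis: linear interpolation between bracketing concentrations; unreached endpoints set to highest concentration. GI50 is the concentration that inhibits growth by half. The concentration for full growth arrest is given as TGI.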
What was measured:
Assay in all cases: NCI tumour cell line growth inhibition, 48 h
[1] = tested on: UACC-62 melanoma
[2] = tested on: UO-31 renal
[3] = tested on: MOLT-4 leukemia
[4] = tested on: A549 NSCLC
[5] = tested on: UACC-257 melanoma
[6] = tested on: SNB-19 CNS
[7] = tested on: ACHN renal
[8] = tested on: PC-3 prostate
[9] = tested on: SN12C renal
[10] = tested on: NCI-H460 lung
[11] = tested on: SK-OV-3 ovarian
[12] = tested on: NCI/ADR-RES ovarian
[13] = tested on: LOX IMVI melanoma
[14] = tested on: KM12 colon
[15] = tested on: OVCAR-8 ovarian
[16] = tested on: OVCAR-5 ovarian
[17] = tested on: U251 CNS
[18] = tested on: MDA-MB-435
[19] = tested on: BT-549 breast
[20] = tested on: EKVX NSCLC
[21] = tested on: SK-MEL-5 melanoma
[22] = tested on: SW-620 colon
[23] = tested on: HCC-2998 colon
[24] = tested on: MALME-3M melanoma
[25] = tested on: HOP-62 NSCLC
[26] = tested on: TK-10 renal
[27] = tested on: NCI-H23 lung
[28] = tested on: COLO 205 colon
[29] = tested on: SK-MEL-28 melanoma
[30] = tested on: MDA-MB-231 breast
[31] = tested on: NCI-H522 lung
[32] = tested on: A498 renal
[33] = tested on: CAKI-1 renal
[34] = tested on: SF-268 CNS
[35] = tested on: HOP-92 NSCLC
[36] = tested on: IGROV1 ovarian
[37] = tested on: HT29 colon
[38] = tested on: SR leukemia
[39] = tested on: M14 melanoma
[40] = tested on: CCRF-CEM leukemia
[41] = tested on: SF-539 CNS
[42] = tested on: HCT-15 colon
[43] = tested on: RPMI-8226 leukemia
[44] = tested on: HS 578T breast
[45] = tested on: MCF7 breast
[46] = tested on: OVCAR-4 ovarian
[47] = tested on: 786-0 renal
[48] = tested on: SF-295 CNS
[49] = tested on: DU-145 prostate
[50] = tested on: NCI-H226 lung
[51] = tested on: K-562 leukemia
[52] = tested on: SNB-75 CNS
[53] = tested on: OVCAR-3 ovarian
[54] = tested on: SK-MEL-2 melanoma
[55] = tested on: HCT-116 colon
[56] = tested on: RXF 393 renal
[57] = tested on: HL-60(TB) leukemia

COc1cccc(-c2cc(=O)c3cc(NC(C)=O)ccc3[nH]2)c1
TGI [1]: > 100 µM
TGI [2]: > 100 µM
TGI [3]: > 100 µM
TGI [4]: > 100 µM
TGI [5]: > 100 µM
TGI [6]: > 100 µM
TGI [7]: > 100 µM
TGI [8]: > 100 µM
TGI [9]: > 100 µM
TGI [10]: > 100 µM
TGI [11]: > 100 µM
TGI [12]: > 100 µM
TGI [13]: > 100 µM
TGI [14]: > 100 µM
TGI [15]: > 100 µM
TGI [16]: > 100 µM
TGI [17]: > 100 µM
TGI [18]: 17.1 µM
TGI [19]: > 100 µM
TGI [20]: > 100 µM
TGI [21]: 56 µM
TGI [22]: > 100 µM
TGI [23]: > 100 µM
TGI [24]: > 100 µM
TGI [25]: > 100 µM
TGI [26]: > 100 µM
TGI [27]: > 100 µM
TGI [28]: > 100 µM
TGI [29]: > 100 µM
TGI [30]: > 100 µM
TGI [31]: > 100 µM
TGI [32]: 61 µM
TGI [33]: > 100 µM
TGI [34]: > 100 µM
TGI [35]: > 100 µM
TGI [36]: > 100 µM
TGI [37]: > 100 µM
TGI [38]: 6 µM
TGI [39]: > 100 µM
TGI [40]: 9.27 µM
TGI [41]: 44.7 µM
TGI [42]: > 100 µM
TGI [43]: 96.2 µM
TGI [44]: 8.35 µM
TGI [45]: > 100 µM
GI50 [46]: 19.6 µM
TGI [46]: > 100 µM
TGI [47]: > 100 µM

Cn1cc(-c2ccc(-c3cn(C)c4ncccc34)[nH]2)c2cccnc21
GI50 [1]: 1.63 µM
TGI [1]: 3.76 µM
GI50 [2]: 1.57 µM
TGI [2]: 3.01 µM
GI50 [3]: 10.2 µM
TGI [3]: > 100 µM
GI50 [4]: 7.84 µM
TGI [4]: > 100 µM
GI50 [5]: 2.93 µM
TGI [5]: 19.6 µM
GI50 [6]: 2.65 µM
TGI [6]: 8.03 µM
GI50 [48]: 4.28 µM
TGI [48]: 12.1 µM
GI50 [7]: 1.62 µM
TGI [7]: 3.08 µM
GI50 [8]: 1.43 µM
TGI [8]: 3.38 µM
GI50 [49]: > 100 µM
TGI [49]: > 100 µM
GI50 [9]: 7.26 µM
TGI [9]: > 100 µM
GI50 [10]: 10 µM
TGI [10]: > 100 µM
GI50 [11]: 25.1 µM
TGI [11]: > 100 µM
GI50 [12]: 2.93 µM
TGI [12]: 9.59 µM
GI50 [13]: 2 µM
TGI [13]: 3.93 µM
GI50 [50]: > 67.1 µM
TGI [50]: > 100 µM
GI50 [14]: 2.02 µM
TGI [14]: 4.23 µM
GI50 [51]: 1.76 µM
TGI [51]: 8.11 µM
GI50 [15]: 2.44 µM
TGI [15]: 6.45 µM
GI50 [16]: 1.65 µM
TGI [16]: 3.59 µM
GI50 [17]: 1.66 µM
TGI [17]: 3.17 µM
GI50 [18]: 24 µM
TGI [18]: > 100 µM
GI50 [52]: 1.82 µM
TGI [52]: 4.34 µM
GI50 [19]: 1.07 µM
TGI [19]: 2.79 µM
GI50 [53]: 1.63 µM
TGI [53]: 3.3 µM
GI50 [20]: 1.62 µM
TGI [20]: 3.34 µM
GI50 [21]: 1.6 µM
TGI [21]: 3.47 µM
GI50 [22]: 2.32 µM
TGI [22]: 5.34 µM
GI50 [23]: 2.51 µM
TGI [23]: 5.89 µM
GI50 [24]: 2.7 µM
TGI [24]: 7.12 µM
GI50 [25]: 3.02 µM
TGI [25]: 24.8 µM
GI50 [26]: 1.48 µM
TGI [26]: 2.88 µM
GI50 [27]: 3.18 µM
TGI [27]: 12.7 µM
GI50 [28]: 1.82 µM
TGI [28]: 3.84 µM
GI50 [29]: 3.33 µM
TGI [29]: 10.9 µM
GI50 [30]: 1.79 µM
TGI [30]: 4.08 µM
GI50 [31]: 0.19 µM
TGI [31]: 0.451 µM
GI50 [54]: 1.91 µM
TGI [54]: 4.04 µM
GI50 [32]: > 26.3 µM
TGI [32]: > 100 µM
GI50 [33]: 1.44 µM
TGI [33]: 4.03 µM
GI50 [34]: 2.23 µM
TGI [34]: 5.45 µM
GI50 [35]: 0.448 µM
TGI [35]: 2.13 µM
GI50 [36]: 4.5 µM
TGI [36]: 53.4 µM
GI50 [37]: 10 µM
TGI [37]: > 100 µM
GI50 [55]: 2.81 µM
TGI [55]: 12.4 µM
GI50 [38]: 1.62 µM
TGI [38]: > 22.1 µM
GI50 [56]: 1.52 µM
TGI [56]: 3.65 µM
GI50 [57]: 1.87 µM
TGI [57]: 7.48 µM
GI50 [39]: 1.94 µM
TGI [39]: 3.97 µM
GI50 [40]: 2.27 µM
TGI [40]: 7.56 µM
GI50 [41]: 1.59 µM
TGI [41]: 3.32 µM
GI50 [42]: 1.69 µM
TGI [42]: 4.63 µM
GI50 [43]: 1.94 µM
TGI [43]: 6.88 µM
GI50 [44]: 1.95 µM
TGI [44]: 6.42 µM
GI50 [45]: 5.54 µM
TGI [45]: > 100 µM
GI50 [46]: 0.638 µM
TGI [46]: 1.61 µM
GI50 [47]: 4.64 µM
TGI [47]: 38.6 µM
